Results on 2 molecules are retold here after paper PMC7108740, “Exploring the molecular structures that confer ligand selectivity for galanin type II and III receptors” (PLoS ONE, 2020).

Ends that are not written are not given here.

What all share (format): cell-based
In experiment [1] the target is T1, GALR3 single mutant L^184M (Homo sapiens, UniProt O60755, L184M).
T1 construct: expressed in transfected cells; host or cells: HEK293 cells stably expressing Gqi
Nature of the experiment: SRE-luc luciferase assay, GALR3 L184M. The conditions noted are these: GALR3 L^184M; SRE-luc in HEK293 Gqi cells, ligand 6 h; mean ± S.E.; SEM. The text has this: (§1) For domain swapping between GALR2 and GALR3, individual cDNA fragments of interest were amplified by polymerase chain reaction (PCR) with Pfu polymerase (ELPIS Biotech, Daejeon, Korea) and two specific primers, one corresponding to the 5' or 3' end of the GALR2 or GALR3 cDNA and the other to the region of overlap between the two receptors. The two resulting fragments, one from GALR2 and the other from GALR3, were subjected to a second round of PCR to generate the chimeric cDNAs. To construct single, double-, triple-, pentuple-, hextuple-, and septuple-mutant receptors, amino acids of GALR3 were substituted for the amino acids at the corresponding positions in GALR2 using PCR-based site-directed mutagenesis. All of the chimeric constructs were cloned into the pcDNA3 expression vector at HindⅢ and XbaⅠ sites. The DNA sequences of the chimeras were verified by automatic sequencing. […] The luciferase activity in 50 μl cell extract was determined using a luciferase assay system according to the standard protocol for the Synergy 2 Multi-Mode Microplate Reader (BioTek, Winooski, VT, USA). […] The concentrations of agonists that induced half-maximal stimulation (EC50) were calculated using the GraphPad PRISM5 software (GraphPad software, Inc., San Diego, CA). […]

Experiment [2] concerns the target T2, GALR3 single mutant A^190V (Homo sapiens, UniProt O60755, A190V).
T2 construct: expressed in transfected cells; host or cells: HEK293 cells stably expressing Gqi
As to the kind of experiment: SRE-luc luciferase assay, GALR3 A190V. The following applies: GALR3 A^190V; SRE-luc in HEK293 Gqi cells, ligand 6 h; mean ± S.E.; SEM.
Description: as §1

In experiment [3] the target is T3, GALR3 mutant L^184M,V^186I,A^187C, A^190V,A^191F (Homo sapiens, UniProt O60755, A187C/A190V/A191F/L184M/V186I).
T3 construct: expressed in transfected cells; host or cells: HEK293 cells stably expressing Gqi
Nature of the experiment: SRE-luc luciferase assay, GALR3 pentuple mutant (A191F). The conditions noted are these: GALR3 L^184M,V^186I,A^187C, SRE-luc in HEK293 Gqi cells, ligand 6 h, mean ± S.E., SEM.
Description: as §1

Experiment [4] has as its target T4, GALR3 mutant L^184M,V^186I,A^187C, A^190V,G^192S (Homo sapiens, UniProt O60755, A187C/A190V/G192S/L184M/V186I).
T4 construct: expressed in transfected cells; host or cells: HEK293 cells stably expressing Gqi
Nature of the experiment: SRE-luc luciferase assay, GALR3 pentuple mutant (G192S). The conditions noted are these: GALR3 L^184M,V^186I,A^187C, SRE-luc in HEK293 Gqi cells, ligand 6 h, mean ± S.E., SEM.
Description: as §1

The target of experiment [5] is T5, GALR3 single mutant A^187C (Homo sapiens, UniProt O60755, A187C).
T5 construct: expressed in transfected cells; host or cells: HEK293 cells stably expressing Gqi
As to the kind of experiment: SRE-luc luciferase assay, GALR3 A187C. The following applies: GALR3 A^187C; SRE-luc in HEK293 Gqi cells, ligand 6 h; mean ± S.E.; SEM.
Description: as §1

In experiment [6] the target is T6, GALR3 mutant A^190V,A^191F,G^192S (Homo sapiens, UniProt O60755, A190V/A191F/G192S).
T6 construct: expressed in transfected cells; host or cells: HEK293 cells stably expressing Gqi
Nature of the experiment: SRE-luc luciferase assay, GALR3 A190V,A191F,G192S. The conditions noted are these: GALR3 A^190V,A^191F,G^192S; SRE-luc in HEK293 Gqi cells, ligand 6 h; mean ± S.E.; SEM.
Description: as §1

In experiment [7] the target is T7, GALR3 single mutant G^192S (Homo sapiens, UniProt O60755, G192S).
T7 construct: expressed in transfected cells; host or cells: HEK293 cells stably expressing Gqi
Nature of the experiment: SRE-luc luciferase assay, GALR3 G192S. The conditions noted are these: GALR3 G^192S; SRE-luc in HEK293 Gqi cells, ligand 6 h; mean ± S.E.; SEM.
Description: as §1

In experiment [8] the target is T8, GALR3 single mutant V^186I (Homo sapiens, UniProt O60755, V186I).
T8 construct: expressed in transfected cells; host or cells: HEK293 cells stably expressing Gqi
As to the kind of experiment: SRE-luc luciferase assay, GALR3 V186I. The conditions noted are these: GALR3 V^186I; SRE-luc in HEK293 Gqi cells, ligand 6 h; mean ± S.E.; SEM.
Description: as §1

Experiment [9] deals with T9, GALR3 mutant L^184M,V^186I,A^187C, A^190V,A^191F,G^192S (Homo sapiens, UniProt O60755, A187C/A190V/A191F/G192S/L184M/V186I).
T9 construct: expressed in transfected cells; host or cells: HEK293 cells stably expressing Gqi
As to the kind of experiment: SRE-luc luciferase assay, GALR3 hextuple mutant. The conditions noted are these: GALR3 L^184M,V^186I,A^187C, SRE-luc in HEK293 Gqi cells, ligand 6 h, mean ± S.E., SEM.
Description: as §1

Experiment [10] deals with T10, GALR3 mutant L^184M,V^186I,A^190V (Homo sapiens, UniProt O60755, A190V/L184M/V186I).
T10 construct: expressed in transfected cells; host or cells: HEK293 cells stably expressing Gqi
As to the kind of experiment: SRE-luc luciferase assay, GALR3 L184M,V186I,A190V. The conditions noted are these: GALR3 L^184M,V^186I,A^190V; SRE-luc in HEK293 Gqi cells, ligand 6 h; mean ± S.E.; SEM.
Description: as §1

Experiment [11] has as its target T11, GALR3 mutant L^184M,V^186I,A^187C (Homo sapiens, UniProt O60755, A187C/L184M/V186I).
T11 construct: expressed in transfected cells; host or cells: HEK293 cells stably expressing Gqi
As to the kind of experiment: SRE-luc luciferase assay, GALR3 L184M,V186I,A187C. The conditions noted are these: GALR3 L^184M,V^186I,A^187C; SRE-luc in HEK293 Gqi cells, ligand 6 h; mean ± S.E.; SEM.
Description: as §1

T6 sequence (O60755 whole entry A190V/A191F/G192S): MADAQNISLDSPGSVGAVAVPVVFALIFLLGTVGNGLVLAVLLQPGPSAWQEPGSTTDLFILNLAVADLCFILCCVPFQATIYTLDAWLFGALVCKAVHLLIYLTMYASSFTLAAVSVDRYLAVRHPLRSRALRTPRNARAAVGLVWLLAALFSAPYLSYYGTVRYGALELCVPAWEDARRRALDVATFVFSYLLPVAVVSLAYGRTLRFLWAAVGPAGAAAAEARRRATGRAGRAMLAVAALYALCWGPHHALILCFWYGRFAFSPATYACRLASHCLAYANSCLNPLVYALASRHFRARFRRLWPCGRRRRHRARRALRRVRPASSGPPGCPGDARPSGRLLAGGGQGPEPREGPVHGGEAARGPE
T9 sequence (O60755 whole entry L184M/V186I/A187C/A190V/A191F/G192S): as the sequence (O60755 whole entry A190V/A191F/G192S) above, with L184M, V186I, A187C counted along it
T11 sequence (O60755 whole entry L184M/V186I/A187C): as the sequence (O60755 whole entry A190V/A191F/G192S) above, with L184M, V186I, A187C, V190A, F191A, S192G counted along it
T1 sequence (O60755 whole entry L184M): as the sequence (O60755 whole entry A190V/A191F/G192S) above, with L184M, V190A, F191A, S192G counted along it
T3 sequence (O60755 whole entry L184M/V186I/A187C/A190V/A191F): as the sequence (O60755 whole entry A190V/A191F/G192S) above, with L184M, V186I, A187C, S192G counted along it
T7 sequence (O60755 whole entry G192S): as the sequence (O60755 whole entry A190V/A191F/G192S) above, with V190A, F191A counted along it
T10 sequence (O60755 whole entry L184M/V186I/A190V): as the sequence (O60755 whole entry A190V/A191F/G192S) above, with L184M, V186I, F191A, S192G counted along it
T4 sequence (O60755 whole entry L184M/V186I/A187C/A190V/G192S): as the sequence (O60755 whole entry A190V/A191F/G192S) above, with L184M, V186I, A187C, F191A counted along it
T5 sequence (O60755 whole entry A187C): as the sequence (O60755 whole entry A190V/A191F/G192S) above, with A187C, V190A, F191A, S192G counted along it
T8 sequence (O60755 whole entry V186I): as the sequence (O60755 whole entry A190V/A191F/G192S) above, with V186I, V190A, F191A, S192G counted along it
T2 sequence (O60755 whole entry A190V): as the sequence (O60755 whole entry A190V/A191F/G192S) above, with F191A, S192G counted along it

Regarding `CSCC[C@H](NC(=O)[C@H](C)NC(=O)[C@H](CCC(N)=O)NC(=O)[C@@H]1CCCN1C(=O)[C@@H](NC(=O)[C@H](Cc1c[nH]c2ccccc12)NC(=O)[C@@H](N)CC(N)=O)[C@@H](C)O)C(=O)N[C@@H](CC(C)C)C(=O)N[C@@H](Cc1ccc(O)cc1)C(=O)N[C@@H](CC(C)C)C(=O)N[C@@H](CCCCN)C(=O)NCC(=O)N[C@@H](C)C(=O)N[C@@H](CCC(N)=O)C(N)=O` [SPX, reference compound], the EC50 stood at 46.8 ± 15.9 nM in experiment [1]; 77.6 ± 18.7 nM in [2]; 50.1 ± 16.2 nM in experiment [3]; 33.9 ± 9.89 nM in experiment [4]; 115 ± 27.7 nM in experiment [5]; 33.9 ± 11 nM in experiment [6]. For the same molecule, the EC50 in experiment [7] was found to be 35.5 ± 12.6 nM; in experiment [8] it was 141 ± 45.8 nM; in experiment [9], 25.7 ± 7.92 nM; in [10] it was 49 ± 16.6 nM; in experiment [11] it was 115 ± 2.61 nM.
As for NWTPQAMLYLKGPQ-NH2 [P^13-SPX], the EC50 worked out at 437 ± 89.8 nM in experiment [1]; 468 ± 105 nM in [2]; 141 ± 36.5 nM in experiment [3]; 145 ± 24.3 nM in [4]; 550 ± 151 nM in experiment [5]; 123 ± 39.8 nM in experiment [6]. In addition, the EC50 in [7] was 355 ± 109 nM; in [8] it was 513 ± 158 nM; in experiment [9] it was 112 ± 25.1 nM; in experiment [10], 324 ± 89.2 nM; in [11], 457 ± 118 nM.
